Drawing on patent publication US10792328B2, “Nanocomplexes for delivery of saporin” (Trustees of Tufts College, priority 2013, dated 2020), this text covers saporin delivery efficiency and tumor size for seven compounds.

For one assay, the system named is MDA-MB-231 cancer cells. The assay can be described thus: In vitro protein transfection (saporin delivery), cell viability by Alamar Blue assay. It is filed as cell-based. The settings on record: MDA-MB-231 cells, under all four studied conditions. The procedure: Compositions 1-32 were tested for delivery of saporin into cells MDA-MB-231.
The two cells lines were purchased from ATCC (Manassas, Va.) and cultured in Dulbecco's Modified Eagle Medium (“DMEM”) supplemented with 10% Fetal Bovine Serum (“FBS”) and 1% penicillin/streptomycin at 37° C. in the presence of 5% CO2. For the protein transfection assay described below, cells were seeded in 96-well plates at a density of 10,000 cells per well a day prior to transfection.
To evaluate saporin delivery efficiency, lipid-like compound/saporin nanocomplexes prepared in Examples 19-54 were added to MDA-MB-231 cancer cells and incubated at 37° C. for 24 hours. The saporin concentration was 0.1 μg/250 μL in PBS. The same volume of PBS without any lipid-like compound or saporin was used as a control. The cell viability was determined by the Alamar Blue assay after 24 hours of incubation. All transfection studies were performed in quadruplicate.
(In general: The colour change of resazurin is a common sign of viable cells or microbes.)

Another assay deals with 4T1-12B breast tumors. The assay can be described thus: In vivo cancer treatment, inhibition of tumor growth. The settings on record: BALB/c mice bearing 4T1-12B breast tumors, tail-vein injection every three days, 5.5 mg/kg lipid-like compound and 330 μg/kg saporin. The procedure:
Composition 33 (i.e., 1-O16B/saporin) and Composition 34 (i.e., 1-O18B/saporin) were tested for in vivo inhibiting tumor growth following the procedure described below. More specifically, BALB/c mice bearing 4T1-12B breast tumors were developed from a 4T1-12B cell suspension in DMEM supplemented with 10% FBS at a concentration of 10^7 cells/ml. An aliquot (100 μl) of the cell suspension was injected into the mammary fat pad of 4-6 week-old female BALB/c mice. The mice were sorted into four groups randomly (n=7 for treatment group, n=5 for control groups) seven days after the injection. The mice were injected through tail-vein every three days. For the treatment group, each mouse was injected with 5.5 mg/kg of 1-O16B or 1-O18B and 330 μg/kg of saporin. Tumor volumes were measured every three days.
PBS without 1-O16B, 1-O18B, and saporin was also injected as a control. Comparative studies were also conducted using saporin in PBS without 1-O16B and 1-O18B.

For `CCCCCCCCCCSSCCOC(=O)CCN(C)CCCN(C)CCC(=O)OCCSSCCCCCCCCCC` [Composition 80-O14B], the saporin delivery efficiency result in the assay on MDA-MB-231 cancer cells was “high saporin delivery efficiency”.

Regarding `CCCCCCCCCCCCSSCCOC(=O)CCN(C)CCCN(C)CCC(=O)OCCSSCCCCCCCCCCCC` [Composition 80-O16B], the saporin delivery efficiency entry in the assay with MDA-MB-231 cancer cells was “high saporin delivery efficiency”.

With `CCCCCCCCCCCCCCCCOC(=O)CCN(C)CCCN(C)CCC(=O)OCCCCCCCCCCCCCCCC` [Composition 80-O16], the saporin delivery efficiency result with MDA-MB-231 cancer cells is “high saporin delivery efficiency”.

`CCCCCCCCCCCCCCSSCCOC(=O)CCN(C)CCCN(C)CCC(=O)OCCSSCCCCCCCCCCCCCC` [Composition 80-O18B]: the saporin delivery efficiency entry in the assay with MDA-MB-231 cancer cells is given as “high saporin delivery efficiency”.

For `CCCCCCCCCCCCCCCCCCOC(=O)CCN(C)CCCN(C)CCC(=O)OCCCCCCCCCCCCCCCCCC` [Composition 80-O18], in the assay with MDA-MB-231 cancer cells, the saporin delivery efficiency result is listed as “high saporin delivery efficiency”.

For the compound `CCCCCCCCCCCCSSCCOC(=O)CCN(CCCN(CCO)CCO)CCC(=O)OCCSSCCCCCCCCCCCC` [Composition 87-O16B], in the assay with MDA-MB-231 cancer cells, the saporin delivery efficiency entry is given as “high saporin delivery efficiency”.

In the case of saporin, the figures for the tumor size result in the assay with 4T1-12B breast tumors (Day 16) and in the assay with 4T1-12B breast tumors (Day 22) were “more than 120 mm^3” and “more than 250 mm^3”, respectively.
